Reference: publication PMC6919601, “Identification of Plasmodium dipeptidyl aminopeptidase allosteric inhibitors by high throughput screening” (PLoS ONE, 2019)

Target: T1, DPAP1 (Plasmodium falciparum, UniProt Q8IIJ9)
T1 sequence (Q8IIJ9 370-599 limits assumed): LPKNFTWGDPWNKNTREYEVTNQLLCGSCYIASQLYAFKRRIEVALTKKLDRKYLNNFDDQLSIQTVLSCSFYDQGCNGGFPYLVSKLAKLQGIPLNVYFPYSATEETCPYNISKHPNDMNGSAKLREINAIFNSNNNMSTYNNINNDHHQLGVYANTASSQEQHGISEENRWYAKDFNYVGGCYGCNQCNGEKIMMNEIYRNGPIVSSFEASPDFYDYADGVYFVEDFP
T1 sequence (Q8IIJ9 28-209 limits assumed): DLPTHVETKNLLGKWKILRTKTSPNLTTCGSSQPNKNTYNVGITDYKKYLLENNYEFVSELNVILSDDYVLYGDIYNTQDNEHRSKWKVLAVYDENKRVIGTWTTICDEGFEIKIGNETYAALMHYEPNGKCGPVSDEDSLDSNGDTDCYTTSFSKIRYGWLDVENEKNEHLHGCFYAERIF
T1 sequence (Q8IIJ9 600-700 limits assumed): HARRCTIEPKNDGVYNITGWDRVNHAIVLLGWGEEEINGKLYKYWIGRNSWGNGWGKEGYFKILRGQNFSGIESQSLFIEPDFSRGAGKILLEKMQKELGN
Assay: biochemical
Format: biochemical
Conditions: for DPAP Primary hit (Hit = 1): 10 μM HTS, 0 not defined; for inhibition at 10 µM: 10 μM compound, parasite lysates, (PR)2Rho, 30 min end-point, read-out: DPAP1 % Inhibition @ 10 uM

For N#CC1=C2SCN(Cc3ccccc3)CN2C(=O)CC1c1cccc2ccccc12 (centres unmarked) [SMDC170166, O=C1CC(C(=C2SCN(Cc3ccccc3)CN12)C#N)c4cccc5ccccc45], the “DPAP Primary hit (Hit = 1)” value was 1 and the inhibition at 10 µM was 52%.
In the case of CC(C)C[C@H](NC(=O)N1CCOCC1)C(=O)N[C@H](/C=C/S(=O)(=O)c1ccccc1)CCc1ccccc1 [SMDC279744, CC(C)C[C@H](NC(=O)N1CCOCC1)C(=O)N[C@@H](CCc2ccccc2)\C=C\S(=O)(=O)c3ccccc3], the inhibition at 10 µM is reported as 6.4%.
For CN1CSC2=C(C#N)C(c3ccccc3)CC(=O)N2C1 (centres unmarked) [SMDC170114, CN1CSC2=C(C#N)C(CC(=O)N2C1)c3ccccc3], the “DPAP Primary hit (Hit = 1)” value was 0 and the inhibition at 10 µM was 33%.
N#CC1=C2SCN(Cc3ccco3)CN2C(=O)CC1c1cccs1 (centres unmarked) [SMDC178892, O=C1CC(C(=C2SCN(Cc3occc3)CN12)C#N)c4cccs4] was tested, and the “DPAP Primary hit (Hit = 1)” value was 0 and the inhibition at 10 µM was 48%.
For CCOc1ccc(C2CC(=O)N3CN(CCO)CSC3=C2C#N)cc1 (centres unmarked) [SMDC178832, CCOc1ccc(cc1)C2CC(=O)N3CN(CCO)CSC3=C2C#N], the “DPAP Primary hit (Hit = 1)” value was 1 and the inhibition at 10 µM was 61%.
With CC(c1ccccc1)N1CSC2=C(C#N)C(c3ccc(Cl)cc3)CC(=O)N2C1 (centres unmarked) [SMDC178781, CC(N1CSC2=C(C#N)C(CC(=O)N2C1)c3ccc(Cl)cc3)c4ccccc4] the “DPAP Primary hit (Hit = 1)” value was 1 and the inhibition at 10 µM was 73%.
N#CC1=C2SCN(Cc3ccco3)CN2C(=O)CC1c1cccc2ccccc12 (centres unmarked) [SMDC170176, O=C1CC(C(=C2SCN(Cc3occc3)CN12)C#N)c4cccc5ccccc45] was tested, and the “DPAP Primary hit (Hit = 1)” value was 0 and the inhibition at 10 µM was 46%.
In the case of CCOc1ccc(C2CC(=O)N3CN(Cc4cccnc4)CSC3=C2C#N)cc1 (centres unmarked) [SMDC178821, CCOc1ccc(cc1)C2CC(=O)N3CN(Cc4cccnc4)CSC3=C2C#N], the “DPAP Primary hit (Hit = 1)” value is reported as 1 and the inhibition at 10 µM is reported as 56%.
For CCc1ccc(C2CC(=O)N3CN(Cc4ccccc4)CSC3=C2C#N)cc1 (centres unmarked) [SMDC170113, CCc1ccc(cc1)C2CC(=O)N3CN(Cc4ccccc4)CSC3=C2C#N], the “DPAP Primary hit (Hit = 1)” value was 0 and the inhibition at 10 µM was 39%.
With CC(C)C[C@H](NC(=O)OCc1ccccc1)C(=O)NC1CCOC1O (some centres unmarked) [SMDC279746, CC(C)C[C@H](NC(=O)OCc1ccccc1)C(=O)NC2CCOC2O] the inhibition at 10 µM was 5.05%.
For COc1ccc(C2CC(=O)N3CN(Cc4ccccc4)CSC3=C2C#N)c(OC)c1 (centres unmarked) [SMDC170154, COc1ccc(C2CC(=O)N3CN(Cc4ccccc4)CSC3=C2C#N)c(OC)c1], the “DPAP Primary hit (Hit = 1)” value was 0 and the inhibition at 10 µM was 32%.
N#CC1=C2SCN(Cc3ccccc3)CN2C(=O)CC1c1ccc(Cl)cc1 (centres unmarked) [SMDC170091, Clc1ccc(cc1)C2CC(=O)N3CN(Cc4ccccc4)CSC3=C2C#N] was tested, and the “DPAP Primary hit (Hit = 1)” value was 0 and the inhibition at 10 µM was 42%.
For COc1cc(C2CC(=O)N3CN(C)CSC3=C2C#N)cc(OC)c1OC (centres unmarked) [SMDC170174, COc1cc(cc(OC)c1OC)C2CC(=O)N3CN(C)CSC3=C2C#N], the “DPAP Primary hit (Hit = 1)” value was 0 and the inhibition at 10 µM was 4%.
In the case of COc1cc(C2CC(=O)N3CN(Cc4ccco4)CSC3=C2C#N)ccc1O (centres unmarked) [SMDC170153, COc1cc(ccc1O)C2CC(=O)N3CN(Cc4occc4)CSC3=C2C#N], the “DPAP Primary hit (Hit = 1)” value is reported as 0 and the inhibition at 10 µM is reported as 18%.
For CC[C@H](C)[C@H](NC(=O)OC(C)(C)C)C(=O)N[C@@H](CCc1ccccc1)C(=O)CCS(=O)(=O)c1ccccc1 [SMDC279745, CC[C@H](C)[C@H](NC(=O)OC(C)(C)C)C(=O)N[C@@H](CCc1ccccc1)C(=O)CCS(=O)(=O)c2ccccc2], the inhibition at 10 µM was 3.66%.
N#CC1=C2SCN(C3CCCC3)CN2C(=O)CC1c1ccc(Cl)cc1 (centres unmarked) [SMDC178771, Clc1ccc(cc1)C2CC(=O)N3CN(CSC3=C2C#N)C4CCCC4] was tested, and the “DPAP Primary hit (Hit = 1)” value was 1 and the inhibition at 10 µM was 55%.
COc1cccc(C2CC(=O)N3CN(C4CCCCC4)CSC3=C2C#N)c1OC (centres unmarked) [SMDC170144, COc1cccc(C2CC(=O)N3CN(CSC3=C2C#N)C4CCCCC4)c1OC] was tested, and the “DPAP Primary hit (Hit = 1)” value was 0 and the inhibition at 10 µM was 22%.
With COc1ccc2ccccc2c1C1CC(=O)N2CN(Cc3ccccc3)CSC2=C1C#N (centres unmarked) [SMDC170106, COc1ccc2ccccc2c1C3CC(=O)N4CN(Cc5ccccc5)CSC4=C3C#N] the “DPAP Primary hit (Hit = 1)” value was 0 and the inhibition at 10 µM was 36%.
With COc1ccc(C2CC(=O)N3CN(CCCc4ccccc4)CSC3=C2C#N)cc1OC (centres unmarked) [SMDC178760, COc1ccc(cc1OC)C2CC(=O)N3CN(CCCc4ccccc4)CSC3=C2C#N] the “DPAP Primary hit (Hit = 1)” value was 0 and the inhibition at 10 µM was 31%.
For CCOc1ccc(C2CC(=O)N3CN(Cc4ccco4)CSC3=C2C#N)cc1 (centres unmarked) [SMDC170142, CCOc1ccc(cc1)C2CC(=O)N3CN(Cc4occc4)CSC3=C2C#N], the “DPAP Primary hit (Hit = 1)” value was 0 and the inhibition at 10 µM was 43%.
COc1ccc2ccccc2c1C1CC(=O)N2CN(Cc3ccco3)CSC2=C1C#N (centres unmarked) [SMDC170165, COc1ccc2ccccc2c1C3CC(=O)N4CN(Cc5occc5)CSC4=C3C#N] was tested, and the “DPAP Primary hit (Hit = 1)” value was 0 and the inhibition at 10 µM was 31%.
For Cc1ccc(C2CC(=O)N3CN(Cc4cccnc4)CSC3=C2C#N)cc1 (centres unmarked) [SMDC178800, Cc1ccc(cc1)C2CC(=O)N3CN(Cc4cccnc4)CSC3=C2C#N], the “DPAP Primary hit (Hit = 1)” value was 0 and the inhibition at 10 µM was 44%.
In the case of Cc1ccccc1C1CC(=O)N2CN(C3CCCCC3)CSC2=C1C#N (centres unmarked) [SMDC170112, Cc1ccccc1C2CC(=O)N3CN(CSC3=C2C#N)C4CCCCC4], the “DPAP Primary hit (Hit = 1)” value is reported as 0 and the inhibition at 10 µM is reported as 24%.
With COc1ccc(C2CC(=O)N3CN(CCC(C)C)CSC3=C2C#N)cc1OC (centres unmarked) [SMDC178780, COc1ccc(cc1OC)C2CC(=O)N3CN(CCC(C)C)CSC3=C2C#N] the “DPAP Primary hit (Hit = 1)” value was 0 and the inhibition at 10 µM was 47%.
In the case of N#CC1=C2SCN(CCc3ccccc3)CN2C(=O)CC1c1cccs1 (centres unmarked) [SMDC178843, O=C1CC(C(=C2SCN(CCc3ccccc3)CN12)C#N)c4cccs4], the “DPAP Primary hit (Hit = 1)” value is reported as 0 and the inhibition at 10 µM is reported as 43%.
CCc1ccc(C2CC(=O)N3CN(Cc4ccco4)CSC3=C2C#N)cc1 (centres unmarked) [SMDC170172, CCc1ccc(cc1)C2CC(=O)N3CN(Cc4occc4)CSC3=C2C#N] was tested, and the “DPAP Primary hit (Hit = 1)” value was 0 and the inhibition at 10 µM was 34%.
For COc1cc(C2CC(=O)N3CN(C4CCCCC4)CSC3=C2C#N)ccc1O (centres unmarked) [SMDC170163, COc1cc(ccc1O)C2CC(=O)N3CN(CSC3=C2C#N)C4CCCCC4], the “DPAP Primary hit (Hit = 1)” value was 0 and the inhibition at 10 µM was -1%.
COc1ccc(CN2CSC3=C(C#N)C(c4cccs4)CC(=O)N3C2)cc1 (centres unmarked) [SMDC178823, COc1ccc(CN2CSC3=C(C#N)C(CC(=O)N3C2)c4cccs4)cc1] was tested, and the “DPAP Primary hit (Hit = 1)” value was 1 and the inhibition at 10 µM was 51%.
For CN1CSC2=C(C#N)C(c3cccc(OCc4ccccc4)c3)CC(=O)N2C1 (centres unmarked) [SMDC170126, CN1CSC2=C(C#N)C(CC(=O)N2C1)c3cccc(OCc4ccccc4)c3], the “DPAP Primary hit (Hit = 1)” value was 1 and the inhibition at 10 µM was 71%.
For COc1ccc(Br)cc1C1CC(=O)N2CN(C3CCCCC3)CSC2=C1C#N (centres unmarked) [SMDC170135, COc1ccc(Br)cc1C2CC(=O)N3CN(CSC3=C2C#N)C4CCCCC4], the “DPAP Primary hit (Hit = 1)” value was 1 and the inhibition at 10 µM was 60%.
N#CC1=C2SCN(Cc3cccnc3)CN2C(=O)CC1c1ccc(F)cc1 (centres unmarked) [SMDC178852, Fc1ccc(cc1)C2CC(=O)N3CN(Cc4cccnc4)CSC3=C2C#N] was tested, and the “DPAP Primary hit (Hit = 1)” value was 1 and the inhibition at 10 µM was 55%.
In the case of N#CC1=C2SCN(CCc3ccccc3)CN2C(=O)CC1c1ccc(F)cc1 (centres unmarked) [SMDC178872, Fc1ccc(cc1)C2CC(=O)N3CN(CCc4ccccc4)CSC3=C2C#N], the “DPAP Primary hit (Hit = 1)” value is reported as 1 and the inhibition at 10 µM is reported as 52%.
In the case of COc1ccc(C2CC(=O)N3CN(Cc4ccccc4)CSC3=C2C#N)cc1OC (centres unmarked) [SMDC170071, COc1ccc(cc1OC)C2CC(=O)N3CN(Cc4ccccc4)CSC3=C2C#N], the “DPAP Primary hit (Hit = 1)” value is reported as 0 and the inhibition at 10 µM is reported as 7%.
CSc1ccc(C2CC(=O)N3CN(C)CSC3=C2C#N)cc1 (centres unmarked) [SMDC170124, CSc1ccc(cc1)C2CC(=O)N3CN(C)CSC3=C2C#N] was tested, and the “DPAP Primary hit (Hit = 1)” value was 1 and the inhibition at 10 µM was 75%.
Cc1ccccc1C1CC(=O)N2CN(Cc3ccco3)CSC2=C1C#N (centres unmarked) [SMDC170102, Cc1ccccc1C2CC(=O)N3CN(Cc4occc4)CSC3=C2C#N] was tested, and the “DPAP Primary hit (Hit = 1)” value was 0 and the inhibition at 10 µM was 26%.
In the case of COc1cccc(C2CC(=O)N3CN(Cc4ccco4)CSC3=C2C#N)c1OC (centres unmarked) [SMDC170134, COc1cccc(C2CC(=O)N3CN(Cc4occc4)CSC3=C2C#N)c1OC], the “DPAP Primary hit (Hit = 1)” value is reported as 0 and the inhibition at 10 µM is reported as 19%.
In the case of N#CC1=C2SCN(C3CCCCC3)CN2C(=O)CC1c1ccccc1F (centres unmarked) [SMDC170132, Fc1ccccc1C2CC(=O)N3CN(CSC3=C2C#N)C4CCCCC4], the “DPAP Primary hit (Hit = 1)” value is reported as 0 and the inhibition at 10 µM is reported as 38%.
For N#CCNC(=O)[C@H](Cc1ccc2ccccc2c1)NC(=O)OCc1ccccc1 [SMDC279825, O=C(N[C@@H](Cc1ccc2ccccc2c1)C(=O)NCC#N)OCc3ccccc3], the inhibition at 10 µM was 0.744%.
In the case of Cc1ccc(C2CC(=O)N3CN(C(C)c4ccccc4)CSC3=C2C#N)cc1 (centres unmarked) [SMDC178820, CC(N1CSC2=C(C#N)C(CC(=O)N2C1)c3ccc(C)cc3)c4ccccc4], the “DPAP Primary hit (Hit = 1)” value is reported as 0 and the inhibition at 10 µM is reported as 11%.
COc1ccc2ccccc2c1C1CC(=O)N2CN(C3CCCCC3)CSC2=C1C#N (centres unmarked) [SMDC170116, COc1ccc2ccccc2c1C3CC(=O)N4CN(CSC4=C3C#N)C5CCCCC5] was tested, and the “DPAP Primary hit (Hit = 1)” value was 0 and the inhibition at 10 µM was 27%.
For Cc1ccc(C2CC(=O)N3CN(CCc4ccccc4)CSC3=C2C#N)cc1 (centres unmarked) [SMDC178761, Cc1ccc(cc1)C2CC(=O)N3CN(CCc4ccccc4)CSC3=C2C#N], the “DPAP Primary hit (Hit = 1)” value was 1 and the inhibition at 10 µM was 64%.
In the case of COc1ccc(C2CC(=O)N3CN(Cc4cccnc4)CSC3=C2C#N)cc1 (centres unmarked) [SMDC178811, COc1ccc(cc1)C2CC(=O)N3CN(Cc4cccnc4)CSC3=C2C#N], the “DPAP Primary hit (Hit = 1)” value is reported as 0 and the inhibition at 10 µM is reported as 46%.
